Results taken from patent US11219625B2, “Inhibitors of N-linked glycosylation and methods using same” (YALE UNIVERSITY, priority 2015, dated 2022).

Tested on: N-linked glycosylation
Experiment: D54-ERLucT cell based luciferase assay for inhibition of N-linked glycosylation
From the text: The HTS approach using the bioluminescent N-linked glycosylation reporter (CCR 2011) in D54-ERLucT and D54-LucT cells has been previously described (Bennett, et al., Transl Oncol 2013, 6, 382-391). Briefly, the primary cell-based screen detects site occupancy of NLG sequons using a modified luciferase protein translated into the ER. […] The methodology for the primary (D54-ERlucT), secondary (D54-LucT), and tertiary (luciferase inhibition) screens as well and toxicity assays with CelltitreGlo are deposited in Pubchem (AID 588693).
The primary screen was developed in the D54 glioma cell line using a modified P. pyralis luciferase gene (ER-LucT) that is ER translated and glycosylated at three N-linked glycosylation consensus sequences. Glycosylation of the reporter inactivates luciferase enzymatic activity providing a robust methodology to detect inhibition of this process. D54 cells expressing a non-ER translated luciferase (LucT) insensitive to inhibition of N-linked glycoysation were used as a secondary screen for false positives. The primary screen was performed in duplicate and values were normalized to the average of positive control wells (Tunicamycin) minus averaged neutral vehicle treated wells per run. Compounds with replicate activity greater than three standard deviations above the mean average of control wells were selected for further study. A subset of 1,845 compounds met this criterion, and were advanced to simultaneous retesting in both the primary screen and a secondary (false positive) cell-based screen. […] Compounds were further triaged from consideration by consulting the Pubchem bioassay database and deprioritizing compounds showing a promiscuity rate higher than 5% across assays or by removing PAINS scaffolds (Baell, et al., J Med Chem 2010, 53, 2719-2740). Remaining compounds were assessed by medicinal chemistry review to score synthetic tractability and known issues with instability, poor solubility, or toxicity. This analysis yielded 39 compounds that were tested in a cell-free assay to detect luciferase inhibitors (Auld, et al., Proc Natl Acad Sci USA 2010, 107, 4878-4883) and by western blot analysis to detect gel mobility changes of the luciferase reporter, consistent with inhibition of N-linked glycosylation. This approach identified one aminobenzamidosulfonamide compound that blocked N-linked glycosylation.
To better understand the connection between structure and activity, analogs were prepared and tested in the D54-ERLucT cell based assay for inhibition of N-linked glycosylation (FIG. 1B). The assay was used to estimate and compare AC40 values among analogs and to guide the design of improved compounds that inhibited N-linked glycosylation. This effort generated 36 unique compounds with modifications to the amine component of the sulfonamide functionality (red), the pyrrolidine moiety (blue) or the methylaminothiazole group (green). Generally, incorporation of larger sulfonamides (i.e., larger secondary amines appended to the sulphone) was not well tolerated, resulting in erosion of potency (7 analogs). However, steric interactions could be mitigated by the introduction of a hydrogen bond accepting oxygen in a larger cyclic amine. Thus, morpholine was determined to be an acceptable surrogate for the dimethylamine component of the sulfonamide (FIGS. 1A-1D). The pyrrolidine group (blue) was replaced with various alkyl, cycloalkyl, and amine groups (7 compounds). The aminothiazole moiety was derivatized most extensively of all three regions (green highlighted area, 22 analogs). […] Analogs with the highest potency in the luciferase assay were retested with western blot analysis to insure that measurements of luciferase activation corresponded to loss of N-linked glycosylation.

[1] = D54-ERLucT cells, luciferase activation

Cc1cnc(NC(=O)c2cc(S(=O)(=O)N(C)C)ccc2N2CCCC2)s1 [NGI-1, 5-(N,N-Dimethylsulfamoyl)-N-(5-methylthiazol-2-yl)-2-(pyrrolidin-1-yl)benzamide]
NLG Inhibition ASSAY Potency Mean AC40 [1]: 170 nM | NLG Inhibition max act, % [1]: 321.4% | IC50 (luminescent activity, estimated, FIG. 1C, read-out: IC50 in intact D54 ER-LucT cells in culture): 1060 nM
